# ChEMBL document CHEMBL1136143, “Synthesis and activity of novel benzoxazole derivatives of mannopeptimycin glycopeptide antibiotics” (2003)
# Experiments:
# Assay type in all cases: functional
# Enterococcus sp. = experiment: In vitro minimum inhibitory concentration against Enterococcus species (11 strains, including VRE)
# Staphylococcus aureus = experiment: In vitro minimum inhibitory concentration against Staphylococcus aureus (10strains, including MRSA)
# Streptococcus = experiment: In vitro minimum inhibitory concentration against Streptococcus Species (5 strains, including PRSP)
Compound,MIC (Enterococcus sp.) [µg/mL],MIC (Staphylococcus aureus) [µg/mL],MIC (Streptococcus) [µg/mL]
C[C@@H](c1ccccc1)[C@@H]1NC(=O)CNC(=O)[C@H](CO)NC(=O)[C@@H]([C@@H](O)[C@@H]2CN=C(N)N2)NC(=O)[C@H]([C@H](O)[C@@H]2CN=C(N)N2)NC(=O)[C@@H](Cc2ccc3nc(-c4ccccc4)oc3c2)NC1=O,32,32,32
COc1cc(-c2nc3ccc(C[C@H]4NC(=O)[C@H]([C@@H](C)c5ccccc5)NC(=O)CNC(=O)[C@H](CO)NC(=O)[C@@H]([C@@H](O)[C@@H]5CN=C(N)N5[C@H]5O[C@H](CO)[C@@H](O)[C@H](O)[C@@H]5O)NC(=O)[C@H]([C@H](O)[C@@H]5CN=C(N)N5)NC4=O)cc3o2)cc(OC)c1OC,8,8,8
C[C@@H](c1ccccc1)[C@@H]1NC(=O)CNC(=O)[C@H](CO)NC(=O)[C@@H]([C@@H](O)[C@@H]2CN=C(N)N2[C@H]2O[C@H](CO)[C@@H](O)[C@H](O)[C@@H]2O)NC(=O)[C@H]([C@H](O)[C@@H]2CN=C(N)N2)NC(=O)[C@@H](Cc2ccc3nc(-c4ccc(C(C)(C)C)cc4)oc3c2)NC1=O,2,2,8
C[C@@H](c1ccccc1)[C@@H]1NC(=O)CNC(=O)[C@H](CO)NC(=O)[C@@H]([C@@H](O)[C@@H]2CN=C(N)N2[C@H]2O[C@H](CO)[C@@H](O)[C@H](O)[C@@H]2O)NC(=O)[C@H]([C@H](O)[C@@H]2CN=C(N)N2)NC(=O)[C@@H](Cc2ccc3nc(-c4ccco4)oc3c2)NC1=O,32,6,32
C[C@@H](c1ccccc1)[C@@H]1NC(=O)CNC(=O)[C@H](CO)NC(=O)[C@@H]([C@@H](O)[C@@H]2CN=C(N)N2[C@H]2O[C@H](CO)[C@@H](O)[C@H](O)[C@@H]2O)NC(=O)[C@H]([C@H](O)[C@@H]2CN=C(N)N2)NC(=O)[C@@H](Cc2ccc3nc(SCc4ccc(-c5ccccc5)cc4)oc3c2)NC1=O,2,8,2
C[C@@H](c1ccccc1)[C@@H]1NC(=O)CNC(=O)[C@H](CO)NC(=O)[C@@H]([C@@H](O)[C@@H]2CN=C(N)N2[C@H]2O[C@H](CO)[C@@H](O)[C@H](O)[C@@H]2O)NC(=O)[C@H]([C@H](O)[C@@H]2CN=C(N)N2)NC(=O)[C@@H](Cc2ccc3nc(-c4cccs4)oc3c2)NC1=O,16,8,16
C[C@@H](c1ccccc1)[C@@H]1NC(=O)CNC(=O)[C@H](CO)NC(=O)[C@@H]([C@@H](O)[C@@H]2CN=C(N)N2[C@H]2O[C@H](CO)[C@@H](O)[C@H](O)[C@@H]2O)NC(=O)[C@H]([C@H](O)[C@@H]2CN=C(N)N2)NC(=O)[C@@H](Cc2ccc3nc(NC4O[C@@H](OC(=O)c5ccccc5)[C@H](OC(=O)c5ccccc5)[C@@H](OC(=O)c5ccccc5)[C@@H]4COC(=O)c4ccccc4)oc3c2)NC1=O (stereo partly specified),4,32,4
C[C@@H](c1ccccc1)[C@@H]1NC(=O)CNC(=O)[C@H](CO)NC(=O)[C@@H]([C@@H](O)[C@@H]2CN=C(N)N2[C@H]2O[C@H](CO)[C@@H](O)[C@H](O)[C@@H]2O)NC(=O)[C@H]([C@H](O)[C@@H]2CN=C(N)N2)NC(=O)[C@@H](Cc2ccc3nc(-c4cccc(C(C)(C)C)c4)oc3c2)NC1=O,8,16,8
C[C@@H](c1ccccc1)[C@@H]1NC(=O)CNC(=O)[C@H](CO)NC(=O)[C@@H]([C@@H](O)[C@@H]2CN=C(N)N2[C@H]2O[C@H](CO)[C@@H](O)[C@H](O)[C@@H]2O)NC(=O)[C@H]([C@H](O)[C@@H]2CN=C(N)N2)NC(=O)[C@@H](Cc2ccc3nc(SCc4ccccc4)oc3c2)NC1=O,4,4,4
C[C@@H](c1ccccc1)[C@@H]1NC(=O)CNC(=O)[C@H](CO)NC(=O)[C@@H]([C@@H](O)[C@@H]2CN=C(N)N2[C@H]2O[C@H](CO)[C@@H](O)[C@H](O)[C@@H]2O)NC(=O)[C@H]([C@H](O)[C@@H]2CN=C(N)N2)NC(=O)[C@@H](Cc2ccc3nc(C=C(c4ccccc4)c4ccccc4)oc3c2)NC1=O,8,8,4
C[C@@H](c1ccccc1)[C@@H]1NC(=O)CNC(=O)[C@H](CO)NC(=O)[C@@H]([C@@H](O)[C@@H]2CN=C(N)N2[C@H]2O[C@H](CO)[C@@H](O)[C@H](O)[C@@H]2O)NC(=O)[C@H]([C@H](O)[C@@H]2CN=C(N)N2)NC(=O)[C@@H](Cc2ccc3nc(-c4ccccc4OC4O[C@H](CO)[C@@H](O)[C@H](O)[C@H]4O)oc3c2)NC1=O (stereo partly specified),128,> 128,128
C[C@@H](c1ccccc1)[C@@H]1NC(=O)CNC(=O)[C@H](CO)NC(=O)[C@@H]([C@@H](O)[C@@H]2CN=C(N)N2[C@H]2O[C@H](CO)[C@@H](O)[C@H](O)[C@@H]2O)NC(=O)[C@H]([C@H](O)[C@@H]2CN=C(N)N2)NC(=O)[C@@H](Cc2ccc3nc(-c4ccc5c(c4)-c4ccccc4C5)oc3c2)NC1=O,4,8,4
C[C@@H](c1ccccc1)[C@@H]1NC(=O)CNC(=O)[C@H](CO)NC(=O)[C@@H]([C@@H](O)[C@@H]2CN=C(N)N2[C@H]2O[C@H](CO)[C@@H](O)[C@H](O)[C@@H]2O)NC(=O)[C@H]([C@H](O)[C@@H]2CN=C(N)N2)NC(=O)[C@@H](Cc2ccc3nc(-c4ccc(Br)cc4)oc3c2)NC1=O,8,8,4
C[C@@H](c1ccccc1)[C@@H]1NC(=O)CNC(=O)[C@H](CO)NC(=O)[C@@H]([C@@H](O)[C@@H]2CN=C(N)N2[C@H]2O[C@H](CO)[C@@H](O)[C@H](O)[C@@H]2O)NC(=O)[C@H]([C@H](O)[C@@H]2CN=C(N)N2)NC(=O)[C@@H](Cc2ccc3nc(SCC(=O)c4ccccc4)oc3c2)NC1=O,4,8,8
C[C@@H](c1ccccc1)[C@@H]1NC(=O)CNC(=O)[C@H](CO)NC(=O)[C@@H]([C@@H](O)[C@@H]2CN=C(N)N2[C@H]2O[C@H](CO)[C@@H](O)[C@H](O)[C@@H]2O)NC(=O)[C@H]([C@H](O)[C@@H]2CN=C(N)N2)NC(=O)[C@@H](Cc2ccc3nc(-c4ccc(-c5ccccc5)cc4)oc3c2)NC1=O,4,4,16
C[C@@H](c1ccccc1)[C@@H]1NC(=O)CNC(=O)[C@H](CO)NC(=O)[C@@H]([C@@H](O)[C@@H]2CN=C(N)N2[C@H]2O[C@H](CO)[C@@H](O)[C@H](O)[C@@H]2O)NC(=O)[C@H]([C@H](O)[C@@H]2CN=C(N)N2)NC(=O)[C@@H](Cc2ccc3nc(-c4ccc(OCc5ccccc5)cc4)oc3c2)NC1=O,4,8,8
CC(C)=Cc1nc2ccc(C[C@H]3NC(=O)[C@H]([C@@H](C)c4ccccc4)NC(=O)CNC(=O)[C@H](CO)NC(=O)[C@@H]([C@@H](O)[C@@H]4CN=C(N)N4[C@H]4O[C@H](CO)[C@@H](O)[C@H](O)[C@@H]4O)NC(=O)[C@H]([C@H](O)[C@@H]4CN=C(N)N4)NC3=O)cc2o1,16,32,32
C[C@@H](c1ccccc1)[C@@H]1NC(=O)CNC(=O)[C@H](CO)NC(=O)[C@@H]([C@@H](O)[C@@H]2CN=C(N)N2[C@H]2O[C@H](CO)[C@@H](O)[C@H](O)[C@@H]2O)NC(=O)[C@H]([C@H](O)[C@@H]2CN=C(N)N2)NC(=O)[C@@H](Cc2ccc3nc(-c4ccc(C(=O)O)cc4)oc3c2)NC1=O,128,> 128,128
CN[C@H](CC(C)C)C(=O)N[C@H]1C(=O)N[C@@H](CC(N)=O)C(=O)N[C@H]2C(=O)N[C@H]3C(=O)N[C@H](C(=O)N[C@H](C(=O)O)c4cc(O)cc(O)c4-c4cc3ccc4O)[C@H](O)c3ccc(c(Cl)c3)Oc3cc2cc(c3O[C@@H]2O[C@H](CO)[C@@H](O)[C@H](O)[C@H]2O[C@H]2C[C@](C)(N)[C@H](O)[C@H](C)O2)Oc2ccc(cc2Cl)[C@H]1O [VANCOMYCIN],5,–,0.25
